Like-named read-outs stand apart in the source and are kept apart here.
Experiments:
Assay type in all cases: cell-based
[1] = test system: NCI-H82 (human small cell lung cancer cell); test: Cell viability assay (Promega CellTiter-Glo), inhibitory effect on NCI-H82; details: 72 h, 3 days of culture
Procedure: (§1) The inhibitory effect of the compounds prepared in the Examples of the present invention on various tumor cell lines was detected using cell viability assay reagent.
(§2) Cell viability was detected using the Promega CellTiter-Glo kit, cell viability was determined by directly measuring intracellular ATP content. In the experiment, the ICso value of the compounds prepared in the Examples of the present invention on various tumor cell lines was detected.
(§3) Each tumor cell was cultured in relevant medium. After cell passage, the gradient diluted compounds prepared in the Examples of the present invention was added. After 3 days of culture, the relevant IC50 (50% inhibiting concentration) was measured. The name, source and culture conditions of each tumor cell line were as follows:
Cell line NCI-H82 (ATCC, No. HTB-175) was cultured in 10% fetal bovine serum-containing RPMI1640 medium (+P/S).

[2] = test system: SW48 (human colon adenocarcinoma cell); test: Cell viability assay (Promega CellTiter-Glo), inhibitory effect on SW48; details: 72 h, 3 days of culture
Procedure: as §1, §2, §3
Cell line SW48 (ATCC, No. CCL-231) was cultured in 10% fetal bovine serum-containing Leibovitz's L-15 medium (+P/S).

[3] = test system: G-401 (human renal carcinoma Wilms cell); test: Cell viability assay (Promega CellTiter-Glo), inhibitory effect on G-401; details: 72 h, 3 days of culture
Procedure: as §1, §2, §3
Cell line G-401 (ATCC, No. CRL-1441) was cultured in 10% fetal bovine serum-containing McCoy's 5a medium (+P/S).

[4] = test system: MDA-MB-453 (breast cancer cell); test: Cell viability assay (Promega CellTiter-Glo), inhibitory effect on MDA-MB-453; details: Homo sapiens, 72 h, 3 days of culture
Procedure: as §1, §2, §3
Cell line MDA-MB-453 (ATCC, No. HTB-131) was cultured in 10% fetal bovine serum-containing Leibovitz's L-15 medium (+P/S).

[5] = test system: CFPAC-1 (human pancreatic cancer cell); test: Cell viability assay (Promega CellTiter-Glo), inhibitory effect on CFPAC-1; details: 72 h, 3 days of culture
Procedure: as §1, §2, §3
Cell line CFPAC-1 (ATCC, No. CRL-1918) was cultured in 10% fetal bovine serum-containing IMDM medium (+P/S).

[6] = test system: 786-O (clear cell renal cell adenocarcinoma cell); test: Cell viability assay (Promega CellTiter-Glo), inhibitory effect on 786-O; details: Homo sapiens, 786-0, 72 h, 3 days of culture
Procedure: as §1, §2, §3
Cell line 786-0 (ATCC, No. CRL-1932) was cultured in 10% fetal bovine serum-containing RPMI1640 medium (+P/S).

[7] = test system: SF126 (human glioblastoma multiforme cell); test: Cell viability assay (Promega CellTiter-Glo), inhibitory effect on SF126
Procedure: as §1, §2, §3
Cell line SF126 (JCRB, No. IFO50286) was cultured in 10% fetal bovine serum-containing EMEM medium (+P/S).
(§4) The inhibitory effect of the compounds prepared in the Examples of the present invention on various brain tumor cell lines was detected using cell viability assay reagent.
(§5) Cell viability was detected using the Promega CellTiter-Glo kit, cell viability was determined by directly measuring intracellular ATP content. In the experiment, the IC50 value of the compounds prepared in the Examples of the present invention on various brain tumor cell lines was detected.

[8] = test system: GB-1 (human brain glioblastoma cell); test: Cell viability assay (Promega CellTiter-Glo), inhibitory effect on GB-1; details: 72 h, 3 days of culture
Procedure: as §1, §2, §3
Cell line GB-1 (JCRB, No. IFO50489) was cultured in 10% fetal bovine serum-containing DMEM medium (+P/S).
as §4, §5

[9] = test system: Kelly (brain neuroblastoma cell); test: Cell viability assay (Promega CellTiter-Glo), inhibitory effect on Kelly; details: Homo sapiens, 72 h, 3 days of culture, read-out: inhibitory effect on brain cell line Kelly (IC50)
Procedure: as §4, §5, §3
Cell line Kelly (ECACC, No. 92110411) was cultured in 10% fetal bovine serum and 2 mM glutamine-containing RPMI1640 medium.

[10] = test system: NB-1 (brain neuroblastoma cell); test: Cell viability assay (Promega CellTiter-Glo), inhibitory effect on NB-1; details: Homo sapiens, 72 h, 3 days of culture, read-out: inhibitory effect on brain cell line NB-1 (IC50)
Procedure: as §4, §5, §3
Cell line NB-1 (ATCC, No. HTB-131) was cultured in 10% fetal bovine serum-containing Leibovitz's L-15 medium (+P/S).

[11] = test system: D341 Med (cerebellar medulloblastoma cell); test: Cell viability assay (Promega CellTiter-Glo), inhibitory effect on D341 Med; details: Homo sapiens, 72 h, 3 days of culture, read-out: inhibitory effect on brain cell line D341 Med (IC50)
Procedure: as §4, §5, §3
Cell line D341 Med (ATCC, No. HTB-187) was cultured in 20% fetal bovine serum-containing EMEM medium (+P/S).

[12] = test system: Con-NCI-H82 cell (NCI-H82 transfected with empty virus vector); test: Cell viability assay (Promega CellTiter-Glo), inhibitory effect on Con-NCI-H82 cell; details: Homo sapiens; NCI-H82 transfected with empty virus vector (control); CellTiter-Glo; read-out: inhibitory effect on Con-NCI-H82 (IC50)
Procedure: (§6) The role of expression level of NNMT gene and DNMT1 in the sensitivity of NCI-H82 cell to the compounds prepared in the Examples of the present invention was determined
(§7) The expression of NNMT protein in NCI-H82 cell was overexpressed by inserting the NNMT gene into NCI-H82 cell using a viral vector, and the NNMT protein-overexpressing NCI-H82 cell (ov-NNMT NCI-H82 cell) was obtained. The expression of DNMT1 in NCI-H82 cell was knocked down transfecting (the by shRNA nucleotide sequence of shRNA was […] TTTTTG (SEQ ID No: 2)) using a viral vector, and the NCI-H82 cell with low expression of DNMT1 protein (sh-DNMT1 NCI-H82 cell) was obtained. The control NCI-H82 cell (Con-NCI-H82 cell) was obtained by transfecting NCI-H82 cell with empty virus vector without carrying NNMT gene and shRNA. The expressing content of NNMT protein and DNMT1 protein in the Con-NCI-H82 cell, the expressing content of NNMT protein in the ov-NNMT NCI-H82 cell, and the expressing content of DNMT1 protein in the sh-DNMT1 NCI-H82 cell were detected using Western Blot assay (as shown in FIG. 15 and FIG. 16), it could be seen from FIG. 15 and FIG. 16 that the NNMT protein was overexpressed in the ov-NNMT NCI-H82 cell and the expression of DNMT1 protein was knocked down (i.e, low expression) in the sh-DNMT1 NCI-H82 cell compared with the expression level of NNMT protein and DNMT protein in the Con-NCI-H82 cell.

[13] = test system: ov-NNMT NCI-H82 cell (NNMT protein-overexpressing NCI-H82); test: Cell viability assay (Promega CellTiter-Glo), inhibitory effect on ov-NNMT NCI-H82 cell; details: Homo sapiens
Procedure: as §6, §7

[14] = test system: sh-DNMT1 NCI-H82 cell (DNMT1 knocked down NCI-H82); test: Cell viability assay (Promega CellTiter-Glo), inhibitory effect on sh-DNMT1 NCI-H82 cell; details: Homo sapiens, NCI-H82 with DNMT1 knocked down by shRNA
Procedure: as §6, §7

[15] = 72 h, SF-126, 3 days of culture, Table 3, read-out: inhibitory effect on SF-126 (IC50)
[16] = SF-126, 72 h, SF126, 3 days of culture, Table 4, read-out: inhibitory effect on brain cell line SF126 (IC50)
[17] = Table 3, read-out: inhibitory effect on GB-1 (IC50)
[18] = Table 4, read-out: inhibitory effect on brain cell line GB-1 (IC50)

Structure (SMILES) | IC50 [1] | IC50 [2] | IC50 [3] | IC50 [4] | IC50 [5] | IC50 [6] | IC50 [7, 15] | IC50 [7, 16] | IC50 [8, 17] | IC50 [8, 18] | IC50 [9] | IC50 [10] | IC50 [11] | IC50 [12] | IC50 [13] | IC50 [14]
CCc1c2c(OC)c(OC)ccc2cc2[n+]1CCc1cc3c(cc1-2)OCO3 [compound AB31706] | 1.48 µM | 1.24 µM | 1.12 µM | 0.62 µM | 21.9 µM | 16.6 µM | 6.49 µM | 6.49 µM | 12.9 µM | 12.9 µM | 1.51 µM | 0.3 µM | 1.18 µM | 1.48 µM | 3.15 µM | 4.64 µM
CCCCc1c2c(OC)c(OC)ccc2cc2[n+]1CCc1cc3c(cc1-2)OCO3 [compound AB31707] | 1.17 µM | 1.42 µM | 1.12 µM | 0.62 µM | 13.1 µM | 7.63 µM | 10.2 µM | 10.2 µM | 8.27 µM | 8.27 µM | 1.24 µM | 0.29 µM | 1.37 µM | 1.17 µM | 2.96 µM | 3.41 µM
CCCCc1c2c(OC)c(OC)cc(Br)c2cc2[n+]1CCc1cc3c(cc1-2)OCO3 [compound AB31711] | 0.65 µM | 0.82 µM | 0.72 µM | 0.5 µM | 9.47 µM | 3.97 µM | 5.21 µM | 5.21 µM | 5.32 µM | 5.32 µM | 0.88 µM | 0.24 µM | 0.92 µM | 0.65 µM | 1.43 µM | 1.9 µM
CCC(CC)C(=O)Oc1c(OC)ccc2cc3[n+](cc12)CCc1cc2c(cc1-3)OCO2 [compound AB31722] | 2.81 µM | 2.06 µM | 3.94 µM | 1.41 µM | 24.4 µM | 26.2 µM | 20.6 µM | 20.6 µM | 40.5 µM | 40.5 µM | 2.52 µM | 0.98 µM | 2.89 µM | 2.81 µM | 5.98 µM | 8.93 µM
CCCCC(=O)Oc1c(OC)ccc2cc3[n+](cc12)CCc1cc2c(cc1-3)OCO2 [compound AB31723] | 3.94 µM | 2.56 µM | 5.31 µM | 3.45 µM | 22.6 µM | 21.5 µM | 19.3 µM | – | > 50 µM | – | – | – | – | 3.94 µM | 8.28 µM | 8.08 µM
COc1ccc2cc3[n+](cc2c1OCCCCCCCl)CCc1cc2c(cc1-3)OCO2 [compound AB31731] | 0.52 µM | 0.62 µM | 0.77 µM | 0.22 µM | 8.98 µM | 3.76 µM | 6.19 µM | 6.19 µM | 6.64 µM | 6.64 µM | 0.86 µM | 0.07 µM | 0.34 µM | 0.52 µM | 1.32 µM | 1.66 µM
CCCCCCCCCCCC(=O)Oc1c(OC)ccc2cc3[n+](cc12)CCc1cc2c(cc1-3)OCO2 [compound AB31766] | 2.47 µM | 1.21 µM | 2.89 µM | 1.25 µM | 15.2 µM | 13 µM | 12.9 µM | – | 9.12 µM | – | – | – | – | 2.47 µM | 4.95 µM | 4.84 µM

These reach a lower IC50 [1]. Values come first.

IC50 [1] | IC50 [2] | IC50 [3] | IC50 [4] | IC50 [5] | IC50 [6] | IC50 [7, 15] | IC50 [7, 16] | IC50 [8, 17] | IC50 [8, 18] | IC50 [9] | IC50 [10] | IC50 [11] | IC50 [12] | IC50 [13] | IC50 [14] | Structure (SMILES)
0.45 µM | 0.43 µM | 0.53 µM | 0.37 µM | 6.07 µM | 3.05 µM | 3.57 µM | 3.57 µM | 3.97 µM | 3.97 µM | 0.64 µM | 0.09 µM | 0.86 µM | 0.45 µM | 0.95 µM | 1.55 µM | CCCCCCCCNc1c(OC)ccc2cc3[n+](cc12)CCc1cc2c(cc1-3)OCO2 [compound AB31739]
0.4 µM | 0.8 µM | 1.38 µM | 0.43 µM | 7.17 µM | 9.16 µM | 10.8 µM | 10.8 µM | 10.1 µM | 10.1 µM | 1.26 µM | 0.14 µM | 0.36 µM | 0.4 µM | 0.92 µM | 1.31 µM | COc1ccc2cc3[n+](cc2c1OCCCBr)CCc1cc2c(cc1-3)OCO2 [compound AB31721]
0.29 µM | 0.25 µM | 0.37 µM | 0.09 µM | 5.29 µM | 2.69 µM | 4.25 µM | 4.25 µM | 3.41 µM | 3.41 µM | 0.66 µM | 0.02 µM | 0.18 µM | 0.29 µM | 0.68 µM | 1.36 µM | COc1ccc2cc3[n+](cc2c1OCCCCOc1ccccc1)CCc1cc2c(cc1-3)OCO2 [compound AB31718]
0.24 µM | 0.2 µM | 0.17 µM | 0.09 µM | 4.6 µM | 2.34 µM | 4.14 µM | 4.14 µM | 2.66 µM | 2.66 µM | 0.36 µM | 0.02 µM | 0.4 µM | 0.24 µM | 0.73 µM | 0.94 µM | COc1ccc2cc3[n+](cc2c1OC/C=C(\C)CCC=C(C)C)CCc1cc2c(cc1-3)OCO2 [compound AB31737]

Source: patent US20250195502A1, “APPLICATION OF TETRACYCLIC COMPOUND IN TREATMENT OF TUMORS” (SHANGHAI SHIJIANG BIOTECHNOLOGY CO., LTD, priority 2022, published 2025)
